This note sets out measurements from publication PMC4286029 (Inflammation Research, 2014).

For one data set, the target named is T1, Syk (Homo sapiens, UniProt P43405).
T1 construct: purchased Millipore Co. Ltd. (KinaseProfiler service)
The data set can be described thus: KinaseProfiler selectivity: Syk. The format is biochemical. The method, then:
(§1) […]; The selectivity of JTE-052 for other kinases was assessed using KinaseProfiler™ (Millipore Co. Ltd.). […].

A short description of data set [1]: Cytotoxicity: fibroblast (NHLF) proliferation ([3H]thymidine). The following applies: human, normal human lung fibroblasts (NHLF).
Experimental: For determination of cytotoxicity, fibroblast proliferation was measured.
The target in the next data set is T2, PKCβI (Homo sapiens, UniProt P05771).
T2 construct: purchased Millipore Co. Ltd. (KinaseProfiler service)
T2 sequence (P05771 whole entry): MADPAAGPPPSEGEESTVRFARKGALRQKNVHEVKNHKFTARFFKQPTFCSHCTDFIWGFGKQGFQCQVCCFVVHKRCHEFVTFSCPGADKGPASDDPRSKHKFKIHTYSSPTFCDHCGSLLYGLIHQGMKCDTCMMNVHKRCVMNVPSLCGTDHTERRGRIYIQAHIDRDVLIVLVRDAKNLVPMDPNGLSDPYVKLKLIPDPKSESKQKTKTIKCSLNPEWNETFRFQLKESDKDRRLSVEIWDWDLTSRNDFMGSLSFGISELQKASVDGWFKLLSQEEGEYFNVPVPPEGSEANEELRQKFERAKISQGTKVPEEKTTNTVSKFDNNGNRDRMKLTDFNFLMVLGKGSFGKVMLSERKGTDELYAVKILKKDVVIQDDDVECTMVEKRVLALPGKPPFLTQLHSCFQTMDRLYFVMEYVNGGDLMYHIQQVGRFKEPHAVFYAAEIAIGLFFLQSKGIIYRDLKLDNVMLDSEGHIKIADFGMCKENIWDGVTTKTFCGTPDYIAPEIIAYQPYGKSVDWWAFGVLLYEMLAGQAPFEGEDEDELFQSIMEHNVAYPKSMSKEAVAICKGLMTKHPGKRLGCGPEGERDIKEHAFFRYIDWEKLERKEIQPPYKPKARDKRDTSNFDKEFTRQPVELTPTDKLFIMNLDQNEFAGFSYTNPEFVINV
The data set can be described thus: KinaseProfiler selectivity: PKCβI. The format is biochemical. The method, then:
as §1

Another data set has as its target T3, Lck (Homo sapiens, UniProt P06239).
T3 construct: purchased Millipore Co. Ltd. (KinaseProfiler service)
The data set can be described thus: KinaseProfiler selectivity: Lck. In kind it is biochemical. The method, then:
as §1

The target in the next data set is T4, GSK3β (Homo sapiens, UniProt P49841).
T4 construct: purchased Millipore Co. Ltd. (KinaseProfiler service)
T4 sequence (P49841 whole entry, species assumed): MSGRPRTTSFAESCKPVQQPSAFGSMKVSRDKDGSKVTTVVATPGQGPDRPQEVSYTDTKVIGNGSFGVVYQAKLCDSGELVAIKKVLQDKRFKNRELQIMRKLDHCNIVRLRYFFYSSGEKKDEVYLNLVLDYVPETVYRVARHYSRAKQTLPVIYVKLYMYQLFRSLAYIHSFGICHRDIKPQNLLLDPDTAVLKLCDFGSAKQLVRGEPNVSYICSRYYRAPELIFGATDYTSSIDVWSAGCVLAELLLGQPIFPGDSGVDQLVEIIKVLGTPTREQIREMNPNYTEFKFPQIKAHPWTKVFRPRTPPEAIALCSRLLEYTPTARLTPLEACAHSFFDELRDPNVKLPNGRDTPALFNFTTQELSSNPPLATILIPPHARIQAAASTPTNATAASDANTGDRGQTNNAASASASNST
The data set can be described thus: KinaseProfiler selectivity: GSK3β. The format is biochemical. The method, then: as §1

Another data set deals with human monocytes. The data set can be described thus: GM-CSF-induced TNF-α production from monocytes (ELISA). The following applies: Monocyte, read-out: IC50, GM-CSF enhancement of TNF-α production upon LPS stimulation in monocytes.
A further data set addresses T5, CDK2/cyclinA (Homo sapiens, UniProt P24941).
T5 construct: purchased Millipore Co. Ltd. (KinaseProfiler service)
The data set can be described thus: KinaseProfiler selectivity: CDK2/cyclinA. In kind it is biochemical. The method, then:
as §1

T3 sequence (P06239 whole entry, species assumed): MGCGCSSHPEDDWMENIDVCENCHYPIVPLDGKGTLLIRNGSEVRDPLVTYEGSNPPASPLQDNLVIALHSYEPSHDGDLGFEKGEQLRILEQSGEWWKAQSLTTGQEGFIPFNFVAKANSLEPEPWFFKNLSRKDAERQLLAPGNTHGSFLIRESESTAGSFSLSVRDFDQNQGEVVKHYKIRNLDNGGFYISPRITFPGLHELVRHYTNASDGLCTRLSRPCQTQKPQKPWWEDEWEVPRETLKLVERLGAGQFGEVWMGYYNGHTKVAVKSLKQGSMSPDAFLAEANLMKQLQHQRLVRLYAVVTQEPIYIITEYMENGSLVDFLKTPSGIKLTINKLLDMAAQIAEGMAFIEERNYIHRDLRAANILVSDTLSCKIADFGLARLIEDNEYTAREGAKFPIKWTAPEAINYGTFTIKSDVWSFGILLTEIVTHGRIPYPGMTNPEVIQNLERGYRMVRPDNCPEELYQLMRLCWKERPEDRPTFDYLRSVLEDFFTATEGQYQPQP
Experimental for human monocytes: The cells were then cultured with 0.1 ng/mL lipopolysaccharide (LPS) for an additional 6 h at 37 °C. The supernatants were collected, and secretion of TNF-α was measured by ELISA.

A word on the IC50: it is the midpoint of a concentration-inhibition curve. With `C[C@H]1CN(C(=O)CC#N)[C@]12CCN(c1ncnc3[nH]ccc13)C2` [JTE-052], the IC50 on Syk is over 1000 nM; at PKCβI, over 1000 nM; at Lck, over 1000 nM; at GSK3β it was over 1000 nM; in the data set with human monocytes it was 277 ± 146 nM; at CDK2/cyclinA, over 1000 nM. The IC50 at 3 days in data set [1] was over 10 µM.
